Results taken from article PMC11727334, “A self-immolative Kdn-glycoside substrate enables high-throughput screening for inhibitors of Kdnases” (Glycobiology, 2024).

How the values were obtained:
AfK = target: T1, AfK (Aspergillus fumigatus, UniProt Q4WQS0); test: Kdnase activity assay: Michaelis-Menten parameters for AfK-catalyzed hydrolysis of substrates; assay type: biochemical; details: 100 mM NaOAc pH 4, 0.01% BSA, 21 °C
T1 construct: AfK was expressed and purified as described by Telford et al; made in house
Excerpt: Next, we measured the Michaelis–Menten parameters for AfK-catalyzed hydrolysis of 4 so as to guide assay optimization for the downstream HTS. Specifically, we added stop solution to the AfK-catalyzed reaction at various times and then, after cyclization we measured the fluorescence, which we converted to product concentration using a standard calibration curve (Figs S3–S5, Supporting Information). As expected, our alkyl Kdn glycoside undergoes enzyme-catalyzed hydrolysis with lower rate constants than those for the activated Kdn glycoside 4MU-Kdn. Specifically, the second-order rate constant (kcat/Km) for the AfK-catalyzed hydrolysis of 4 is (4.0 ± 0.8) × 10^3 M^−1 s^−1, while that for 4MU-Kdn (1) is (1.8 ± 0.1) × 10^5 M^−1 s^−1 ([Yeung et al. 2013]) (Table S1, Supporting Information).
The activity of AfK was determined by measuring cleavage of the synthetic Kdnase substrate Kdn-SICL-4MU 4 (Fig. 1). Substrate 4 was incubated at rt for 10 min followed by the addition purified recombinant enzyme. A stop solution containing 100 mM K2CO3 pH ≈ 12 was added at a series of time points starting from 5, 10, 15, 30, 45, 60, 120, 180 min. […] The substrate concentration used ranged of 2–2,000 μM and the amount of 4-methylumbelliferone (4MU) released from 4 was determined using a fluorescence spectrophotometer (BioTek Neo 2) at excitation and emission wavelengths of 360 and 450 nm, respectively. […]

[1] = Base promoted cyclization of liberated aglycon after carbonate stop solution; assay type: physicochemical; details: after addition of carbonate stop solution, pH ≈ 10
Protocol: With Kdn glycoside 4 in hand, we began assay development. […] We reasoned that hydroxyl group activation is required for cyclization. We therefore allowed the enzymatic reaction to proceed for 5 min and then raised the pH of the solution to a pH of ≈ 10 by addition of a solution of K2CO3 (Fig. 1D). We opted for this raised pH value because it would both facilitate cyclization releasing the 4MU reporter and also terminate the enzyme-catalyzed substrate hydrolysis. Using this approach, we observed a significant increase in fluorescence attributable to AfK-catalyzed hydrolysis of substrate 4. […] That is, in the absence of Kdnase, no hydroxycarbamate aglycon 6 is formed. […] Thus, >98% of the fluorescence signal is produced within 15 min following addition of the basic buffer (Fig. S2, supporting information).

[2] = no reference given; cited from earlier work

T1 sequence (Q4WQS0 21-406): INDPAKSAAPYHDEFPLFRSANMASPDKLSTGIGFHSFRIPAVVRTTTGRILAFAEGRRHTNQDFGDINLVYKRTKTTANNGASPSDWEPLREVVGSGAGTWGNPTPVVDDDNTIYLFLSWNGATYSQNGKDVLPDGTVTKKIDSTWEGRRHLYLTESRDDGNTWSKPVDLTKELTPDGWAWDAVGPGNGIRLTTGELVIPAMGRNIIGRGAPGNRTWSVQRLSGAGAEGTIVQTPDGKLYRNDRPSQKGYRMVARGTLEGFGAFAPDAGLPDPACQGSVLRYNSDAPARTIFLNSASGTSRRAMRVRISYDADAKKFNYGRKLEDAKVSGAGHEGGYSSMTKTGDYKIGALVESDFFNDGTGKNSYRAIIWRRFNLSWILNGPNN

Cc1cc(=O)oc2cc(OC(=O)N(C)CCO[C@]3(C(=O)O)C[C@H](O)[C@@H](O)[C@H]([C@H](O)[C@H](O)CO)O3)ccc12 [compound 4, N-methyl-(N-4′-methylumbelliferylcarbonyl)-2-aminoethyl 3-deoxy-D-glycero-α-D-galacto-non-2-ulopyranosidonic acid]
Km (AfK): 950 µM
kcat (AfK): 3.7 ± 0.2 s–1

Cc1cc(=O)oc2cc(OC(=O)N(C)CCO)ccc12 [compound 6]
half-life (t1/2) of first-order cyclization [1]: approximately 2.5 min

Cc1cc(=O)oc2cc(O)ccc12 [4MU, 4-methylumbelliferone]
pKa [2]: 8.4
